The data set deals with SNHG14. The settings on record: ASO.
Setting [1] is: Mouse Primary Neuronal Cell, 0.005 µM.

The values below come from the OligoGym collection.

After the bases stand the sugars from the 5' end (letter, count) and the backbone: PS all phosphorothioate, else s phosphorothioate and o phosphodiester by linkage. Methylation of C is not given here. l = locked nucleic acid (LNA); d = 2'-deoxy (DNA)

As for “AAAATCTCAACTACCATTT (sugars l6 d6 l2 d2 l3, PS)”, the target mRNA inhibition (Human Neuronal Cell, 7.5 µM) came to 23%.

With “ACTGTTTATACCCTTTCC (sugars lddldlddddddddddll, PS)”, for the setting “Human Neuronal Cell, 7.5 µM”, the target mRNA inhibition came to 53%.

For the sequence “CAACATTATTAACCACCTT (sugars ldldddddddddddldlll, PS)”, under “Human Neuronal Cell, 7.5 µM”, the target mRNA inhibition is 52%.

“ATTTACACTTAATTATACTT (sugars llllddlddddddldddlll, PS)”: the target mRNA inhibition (Human Neuronal Cell, 7.5 µM) turned out to be 21%.

With “ACTGTTTATACCCTTTC (sugars ldddlddddddlddlll, PS)”, where the note is “Human Neuronal Cell, 7.5 µM”, the target mRNA inhibition was 53%.

As for “TTATAGCCATTCTATCT (sugars l4 d11 l2, PS)”, the target mRNA inhibition reads like this: (Human Neuronal Cell, 0.2 µM) 63%; (Human Neuronal Cell, 1 µM) 69%.

As for ACTCTGCAATACACCA (sugars l3 d10 l3, PS), the target mRNA inhibition stood at 52% (Human Neuronal Cell, 0.2 µM) and 56% (Human Neuronal Cell, 1 µM).

With “TACACTTAATTATACTTCCA (sugars lddldldddddddlldddll, PS)”, the target mRNA inhibition (Human Neuronal Cell, 7.5 µM) is 55%.

For “TTATACACCATCATTAT (sugars l3 d11 l3, PS)”, the target mRNA inhibition is, setting by setting: (Human Neuronal Cell, 0.2 µM) 47%; (Human Neuronal Cell, 1 µM) 52%.

“TTTTTATACCTTTCTTTAAC (sugars ldddlldddddddlddddll, PS)”: where the note is “Human Neuronal Cell, 7.5 µM”, the target mRNA inhibition came to 15%.

For the sequence “CTGTATACACCATCCCA (sugars l1 d12 l1 d1 l2, PS)”, under “Human Neuronal Cell, 7.5 µM”, the target mRNA inhibition is 58%.

On to “GCAACATTATTAACCACCT (sugars ldddddddddddlldldll, PS)”, for which, where the note is “Human Neuronal Cell, 7.5 µM”, the target mRNA inhibition worked out at 39%.

For “AGTTCTACTATACTTTCC (sugars l1 d2 l1 d12 l2, PS)”, the target mRNA inhibition (Human Neuronal Cell, 7.5 µM) turned out to be 43%.

“ATTCAAAGCACACCACC (sugars l2 d12 l3, PS)”: the target mRNA inhibition by setting is: (Human Neuronal Cell, 0.2 µM) 25%; (Human Neuronal Cell, 1 µM) 32%.

As for “TTATAGCCATTCTATCT (sugars l1 d10 l3 d1 l2, PS)”, for the setting “Human Neuronal Cell, 7.5 µM”, the target mRNA inhibition is 51%.

Take “TCTTACTCTGACTTTCCA (sugars l2 d14 l2, PS)”: the target mRNA inhibition is, setting by setting: (Human Neuronal Cell, 0.2 µM) 56%; (Human Neuronal Cell, 1 µM) 65%.

Consider “GCACATTCTTTCTATAC (sugars ldldlddddddlddlll, PS)”, for which, under “Human Neuronal Cell, 7.5 µM”, the target mRNA inhibition was determined as 49%.

In the case of “TTCTGTATACACCATCC (sugars l1 d1 l2 d11 l2, PS)”, the target mRNA inhibition (Human Neuronal Cell, 7.5 µM) was 55%.

“TTCCTTTAATGCTTCTA (sugars l4 d11 l2, PS)”: the target mRNA inhibition is, setting by setting: (Human Neuronal Cell, 0.2 µM) 55%; (Human Neuronal Cell, 1 µM) 65%.

In the case of “TTATACCTTTCTTTAACCCT (sugars ldlddlddddddddddddll, PS)”, the target mRNA inhibition (Human Neuronal Cell, 7.5 µM) turned out to be 56%.

Consider GCTTTTAACCAGAGT (sugars l3 d9 l3, PS), for which the target mRNA inhibition (Human Neuronal Cell, 7.5 µM) is 73%.

On to “AATTATTTATACACCAT (sugars l2 d11 l4, PS)”, for which the target mRNA inhibition was found to be 2% (Human Neuronal Cell, 0.2 µM) and 32% (Human Neuronal Cell, 1 µM).

On to “TTTATCAATATCTTCTCACT (sugars lddlddddddddddlddlll, PS)”, for which the target mRNA inhibition (Human Neuronal Cell, 7.5 µM) came to 53%.

Regarding CTTCCCTTTGATAACA (sugars l4 d10 l2, PS), the target mRNA inhibition reads like this: (Human Neuronal Cell, 0.2 µM) 12%; (Human Neuronal Cell, 1 µM) 32%.

“TTTCCATTTATTTCCATTT (sugars lddddldddddddldllll, PS)”: for the setting “Human Neuronal Cell, 7.5 µM”, the target mRNA inhibition amounted to 54%.

With “ATTTACACTTAATTATACTT (sugars ldddldldddddddllllll, PS)”, under “Human Neuronal Cell, 7.5 µM”, the target mRNA inhibition was found to be 46%.

As for AATGCTCACACTAATT (sugars l4 d10 l2, PS), the target mRNA inhibition was 37% (Human Neuronal Cell, 0.2 µM) and 54% (Human Neuronal Cell, 1 µM).

Turning to “TCTATATCAAGTTCCTT (sugars l2 d11 l4, PS)”, the target mRNA inhibition was determined as 51% (Human Neuronal Cell, 0.2 µM) and 43% (Human Neuronal Cell, 1 µM).

Turning to “GTTACCTACATCTCATA (sugars l2 d13 l2, PS)”, the target mRNA inhibition is, setting by setting: (Human Neuronal Cell, 0.2 µM) -14%; (Human Neuronal Cell, 1 µM) 11%; (Human Neuronal Cell, 5 µM) 13%; under setting [1], 81%.

As to “CACCAGTATTTCTTCTT (sugars l4 d11 l2, PS)”, the target mRNA inhibition was determined as 31% (Human Neuronal Cell, 0.2 µM) and 27% (Human Neuronal Cell, 1 µM).

As to TGTCATCTACAAATCA (sugars l4 d10 l2, PS), the target mRNA inhibition (Human Neuronal Cell, 0.2 µM) is 50% and the target mRNA inhibition (Human Neuronal Cell, 1 µM) was 46%.

In the case of “TTACCTACATCTCATACTT (sugars l3 d13 l3, PS)”, the target mRNA inhibition runs as follows: (Human Neuronal Cell, 0.2 µM) -12%; (Human Neuronal Cell, 1 µM) -3%; (Human Neuronal Cell, 5 µM) 13%; under setting [1], 86.7%.

Consider “GCACATTCTTTCTATAC (sugars l1 d1 l3 d8 l4, PS)”, for which, under “Human Neuronal Cell, 7.5 µM”, the target mRNA inhibition came to 59%.

For the sequence “TAAAATTATTTATACACCA (sugars llldllddddddlllldll, PS)”, for the setting “Human Neuronal Cell, 7.5 µM”, the target mRNA inhibition stood at 7%.

For TTTATTAGATTACTCC (sugars l2 d10 l4, PS), the target mRNA inhibition is, setting by setting: (Human Neuronal Cell, 0.2 µM) 24%; (Human Neuronal Cell, 1 µM) 17%.

Consider “AAATTATTTATACACCATCA (sugars lllddllddddddlldddll, PS)”, for which, under “Human Neuronal Cell, 7.5 µM”, the target mRNA inhibition worked out at 64%.

Take “TATCTTTGACATTCCAT (sugars l2 d11 l4, PS)”: the target mRNA inhibition runs as follows: (Human Neuronal Cell, 0.2 µM) 48%; (Human Neuronal Cell, 1 µM) 52%.

Regarding “GTTCTACTATACTTTCCT (sugars l1 d14 l3, PS)”, the target mRNA inhibition (Human Neuronal Cell, 7.5 µM) stood at 46%.

Regarding “TTTTTATACCTTTCTTTAAC (sugars ldlddldddddddlldddll, PS)”, the target mRNA inhibition (Human Neuronal Cell, 7.5 µM) was 23%.

For “GTTTCCATCTACTATTAA (sugars ldldllddddddddddll, PS)”, the target mRNA inhibition (Human Neuronal Cell, 7.5 µM) amounted to 58%.

For the sequence “AAATTGTCTACCTTCCT (sugars l2 d12 l3, PS)”, the target mRNA inhibition (Human Neuronal Cell, 0.2 µM) came to 29% and the target mRNA inhibition (Human Neuronal Cell, 1 µM) was determined as 19%.

Regarding “CTGTATACACCATCCCA (sugars lddldddddddldddll, PS)”, the target mRNA inhibition (Human Neuronal Cell, 7.5 µM) came to 55%.

“TTTATCAATATCTTCTCA (sugars lddlllddddddddldll, PS)”: the target mRNA inhibition (Human Neuronal Cell, 7.5 µM) was 67%.

Consider “TTATAGCCATTCTATCT (sugars l3 d12 l2, PS)”, for which the target mRNA inhibition (Human Neuronal Cell, 7.5 µM) worked out at 59%.

As for “AAATCTCAACTACCATTTTT (sugars lldddllddddddlddllll, PS)”, the target mRNA inhibition (Human Neuronal Cell, 7.5 µM) was determined as 29%.

Turning to “CAGGCAGATAACCTCCAA (sugars l3 d12 l3, PS)”, the target mRNA inhibition reads like this: (Human Neuronal Cell, 0.2 µM) 12%; (Human Neuronal Cell, 1 µM) 20%; (Human Neuronal Cell, 5 µM) 18%.

For “TATCTTTCCATTTATTTCC (sugars lddddldddddddddldll, PS)”, where the note is “Human Neuronal Cell, 7.5 µM”, the target mRNA inhibition is 52%.

With “TATCTTTCCATTTATTTCCA (sugars l1 d2 l1 d14 l2, PS)”, the target mRNA inhibition (Human Neuronal Cell, 7.5 µM) is 45%.

Turning to “AAATTATTTATACACCATCA (sugars llddldldddddddddllll, PS)”, the target mRNA inhibition (Human Neuronal Cell, 7.5 µM) is 67%.

As to “ATCATTCTCAACAATTAAA (sugars l4 d8 l7, PS)”, the target mRNA inhibition (Human Neuronal Cell, 7.5 µM) is 27%.

For the sequence ATGAAACTATTACTCC (sugars l2 d10 l4, PS), the target mRNA inhibition by setting is: (Human Neuronal Cell, 0.2 µM) 18%; (Human Neuronal Cell, 1 µM) 35%.

Consider “TACATCTCATACTTGCT (sugars l4 d11 l2, PS)”, for which the target mRNA inhibition under setting [1] was 95.3%.

For “AAAATTATTTATACACCATC (sugars lllldlddddddddldllll, PS)”, for the setting “Human Neuronal Cell, 7.5 µM”, the target mRNA inhibition turned out to be 59%.

For “ATCTTTCCATTTATTTCCA (sugars l1 d1 l1 d14 l2, PS)”, under “Human Neuronal Cell, 7.5 µM”, the target mRNA inhibition was 41%.

For “TTATAGCCATTCTATCT (sugars ldlllddddddldddll, PS)”, the target mRNA inhibition (Human Neuronal Cell, 7.5 µM) was 44%.
